# From US20030119814A1, “Novel prodrugs of N-H bond-containing compounds and methods of making thereof” (The University of Kansas, priority 2001, published 2003)
# Experiments:
# [1] = rabbits; due to high thiols in the blood; cited from earlier work
# [2] = physchem; details: soybean oil, oil or lipid
# [3] = Aqueous stability in buffer at 25 degrees Celsius; type: physicochemical; details: for aqueous degradation kinetics: buffered aqueous solution, Ionic Strength 0.15M; for half-life: 35 mM Acetate Buffer, Ionic Strength 0.15M (NaCl)
# Method: (§1) 1HNMR (300 MHz, DMSO-d6): □ 3.05 (d of d, 1H), 3.25 (d of d, 1H), 3.80 (broad), 4.15 (broad, 1H), 7.45 (t, 2H), 7.55 (t, 1H), 7.80 (d, 2H), 8.40 (broad), 9.60 (s, 1H). FAB+ 241.0 (M+1). […] When a 10 times molar excess of cysteine was added to the above solution, the model prodrug degraded (reverted to yield benzamide) with a half life of ˜20 to 30 minutes. In addition, the above benzamide-cysteine model prodrug had improved aqueous solubility compared to benzamide.
# (§2) 1HNMR (300 MHz, CDCl3): □ 1.15 (t, 3H), 3.10 (d of d, 11H), 3.70 (d of d, 11H), 3.95 (m, 2H), 4.70 (m, 1H), 5.05 (d of d, 2H), 6.25 (d, 1H), 7.35 (broad s, 5H), 7.75 (m, 2H), 7.90 (m, 2H). […] When a 10 times molar excess of cysteine was added to the above solution, the model prodrug degraded (reverted to yield phthalimide) instantaneously (kinetics were not measurable).
# (§3) ^1HNMR (300 MHz, DMSO-d6): □ 1.15 (t, 3H), 2.85 (d of d, 1H), 3.05 (d of d, 1H), 4.05 (m, 1H), 4.15 (q, 2H), 6.95 (s, 2H), 7.10 (s, 1H), 7.35 (m, 2H), 7.40 (broad s, 6H), 8.40 (broad). FAB+ 384.1 (M+1).
# [4] = Aqueous solubility compared to parent compound; type: physicochemical
# Method: as §1, §3
# [5] = Reversion of prodrug to parent on addition of 10 times molar excess of cysteine; type: physicochemical
# Method: as §1, §2
# [6] = within a pH range of 4.0 to 7.0, 25 degrees Celsius, projected by Eyring Plot
Structure (SMILES),solubility [2] [mg/mL],"pH of maximum stability [3, 6]",aqueous solubility compared to parent compound [4],aqueous degradation kinetics [3],other results
"O=C1C2CC=CCC2C(=O)N1SC(Cl)(Cl)Cl (stereo not shown) [Captan, N-trichloromethylthio-4-cyclohexane 1,2-dicarboximide]",,,,,fate of active form in the body [1]: broken down in the body
CCOC(=O)CCSN(CC1CN(c2ccc(N3CCOCC3)c(F)c2)C(=O)O1)C(C)=O (stereo not shown) [Example 10],> 30,,,,
CCOC(=O)C(CSN1C(=O)c2ccccc2C1=O)NC(=O)OCc1ccccc1 (stereo not shown) [Example 15],,,,did not show pseudo-first order kinetics,"degradation (reversion to parent) with cysteine ([5]; 10 times molar excess of cysteine added to the acetate buffer solution, kinetics not measurable): instantaneously; half-life ([3]; pH 3.5, 25 degrees Celsius): 8 to 9 days; pH of maximum stability ([3]; within a pH range of 3.5 to 5.0, 25 degrees Celsius): 3.5"
CC(=O)N(CC1CN(c2ccc(N3CCOCC3)c(F)c2)C(=O)O1)Sc1ccccc1 (stereo not shown) [Example 11],> 10,,,,melting point: 120.9 °C

# The next lines start with results.
solubility [2] [mg/mL],"pH of maximum stability [3, 6]",aqueous solubility compared to parent compound [4],Structure (SMILES),aqueous degradation kinetics [3],other results
,4.0,greatly improved,CCOC(=O)C(N)CSNC(=O)N1c2ccccc2C=Cc2ccccc21 (stereo not shown) [Example 16],Pseudo-first order degradation kinetics were observed,"half-life ([3]; pH 4.0, 25 degrees Celsius, projected by Eyring Plot): ~181 days"
,6.0,improved,NC(CSNC(=O)c1ccccc1)C(=O)O (stereo not shown) [Example 13],Pseudo-first order degradation kinetics were observed,"half-life ([5]; phosphate buffer with 10 times molar excess of cysteine, 10 times molar excess of cysteine added to the phosphate buffer solution): 0.333 to 0.5 h"
